# Experimental data: patent US6133319A, “IL-8 receptor antagonists” (SmithKline Beecham Corporation, priority 1999, dated 2000)
# Molecular target: T1, recombinant human IL-8 type b receptor (IL-8 Rb, Type II, permissive receptor) (Homo sapiens, UniProt P25025)
# T1 sequence (P25025 1-360): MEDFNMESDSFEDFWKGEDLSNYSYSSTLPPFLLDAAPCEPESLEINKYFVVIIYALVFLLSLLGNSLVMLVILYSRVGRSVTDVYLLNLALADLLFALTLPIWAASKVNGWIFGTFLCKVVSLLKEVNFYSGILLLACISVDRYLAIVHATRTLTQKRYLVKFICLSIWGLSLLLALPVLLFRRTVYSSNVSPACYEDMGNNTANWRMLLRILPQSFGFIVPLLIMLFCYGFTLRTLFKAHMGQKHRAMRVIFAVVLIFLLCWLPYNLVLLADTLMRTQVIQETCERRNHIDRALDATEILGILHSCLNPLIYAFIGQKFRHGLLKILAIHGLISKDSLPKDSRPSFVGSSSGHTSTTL
# Test: Receptor binding assay, [125I] IL-8 binding to IL-8 Rb (Type II, permissive) receptor membranes
# Settings: recombinant IL-8 Rb (Type II) CHO membranes
# Protocol: The IL-8, and Gro-a chemokine inhibitiory effects of compounds of the present invention were determined by the following in vitro assay:
# [^125 I] IL-8 (human recombinant) was obtained from Amersham Corp., Arlington Heights, Ill., with specific activity 2000 Ci/mmol. Gro-a was obtained from NEN- New England Nuclear. All other chemicals were of analytical grade. High levels of recombinant human IL-8 type a and b receptors were individually expressed in Chinese hamster ovary cells as described previously (Holmes, et al., Science, 1991, 253, 1278). The Chinese hamster ovary membranes were homogenized according to a previously described protocol (Haour, et al., J Biol Chem., 249 pp 2195-2205 (1974)). Except that the homogenization buffer was changed to 10 mM Tris-HCl, 1 mM MgS04, 0.5 mM EDTA (ethylene-diaminetetraacetic acid), 1 mM PMSF (a-toulenesulphonly flouride), 0.5 mg/L Leupeptin, pH 7.5. Membrane protein concentration was determined using Pierce Co. micro-assay kit using bovine serum albumin as a standard. All assays were performed in a 96-well micro plate format. Each reaction mixture contained ^125 I IL-8 (0.25 nM) or ^125 I Gro-a and 0.5 μg/mL of IL-8Ra or 1.0 μg/mL of IL-8Rb membranes in 20 mM Bis-Trispropane and 0.4 mM Tris HCl buffers, pH 8.0, containing 1.2 mM MgSO4, 0.1 mM EDTA, 25 mM NaCl and 0.03% CHAPS. In addition, drug or compound of interest was added which had been pre-dissolved in DMSO so as to reach a final concentration of between 0.01 nM and 100 uM. The assay was initiated by addition of ^125 I-IL-8. After 1 hour at room temperature the plate was harvested using a Tomtec 96-well harvester onto a glass fiber filtermat blocked with 1% polyethylenimine/0.5% BSA and washed 3 times with 25 mM NaCl, 10 mM TrisHCl, 1 mM MgSO4, 0.5 mM EDTA, 0.03% CHAPS, pH 7.4. The filter was then dried and counted on the Betaplate liquid scintillation counter. The recombinant IL-8 Ra, or Type I, receptor is also referred to herein as the non-permissive receptor and the recombinant IL-8 Rb, or Type II, receptor is referred to as the permissive receptor.
row,activity in the permissive models for IL-8 receptor inhibition (result in words),SMILES
1,inactive,N#Cc1ccc(NC(=O)N[C@@H]2CCCC[C@H]2OCc2ccccc2)c(NS(=O)(=O)c2ccccc2)c1 (relative stereo) [N-trans-(2-benzyloxycyclohexyl)-N'-((2-benzenesulfonylamino)4-cyanophenyl))urea]
2,inactive,O=C(O)CCNC(=O)Nc1ccc([N+](=O)[O-])cc1O [N-(2-carboxyethyl)-N'-(2-hydroxy-4-nitrophenyl)urea]
3,inactive,CC(C)OCCNC(=O)Nc1ccc([N+](=O)[O-])cc1O [N-(ethylisopropylether)-N'-(2-hydroxy-4-nitro-phenyl)urea]
4,inactive,"CC(C)(COCc1ccccc1)NC(=O)Nc1ccc([N+](=O)[O-])cc1O [Example 6, N-(1,1-Dimethyl-2-benzoxyethyl)-N'-(2-hydroxy-4-nitrophenyl)urea]"
